This note sets out measurements from ChEMBL document CHEMBL1201862, “PubChem BioAssay data set” (2004).

Some test systems named below: HCT-116; SF-295; M14; OVCAR-8; ACHN; SK-MEL-5; SN12C; PC-3; SW-620; SK-MEL-2; Hs-578T; CCRF-CEM; IGROV-1; RXF 393; SNB-75; NCI-H226; CAKI-1; A498; NCI-H522; LOX IMVI.
Holding throughout (assay): growth of human tumour cells (NCI), 48 h

The structures appear in SMILES notation.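 A five-concentration, 48-hour dose response in 96-well plates underlies each endpoint, interpolated linearly between surrounding concentrations. The concentration for 50% growth inhibition is given as GI50.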 Calls of active or inactive are those of the source. No stated cut-off is given here; in the data, active = GI50 up to about 1.1 µM and inactive = higher.

Consider `O=C(c1cc(Br)ccc1O)c1cc(Br)ccc1O`, for which the GI50 was 15.9 µM (inactive) with HCT-116; 17.7 µM (inactive) in the test with SF-295; 15.7 µM (inactive) in the test with M14; 16.9 µM (inactive) with OVCAR-8; 16.4 µM (inactive) in the test with ACHN; 12.6 µM (inactive) with SK-MEL-5. Besides, the GI50 in the test on SN12C was 16.7 µM (inactive); with PC-3, 17.1 µM (inactive); with SW-620 it was 16.4 µM (inactive); in the test on SK-MEL-2 it was 15.7 µM (inactive); in the test with Hs-578T, 29.8 µM (inactive); with CCRF-CEM, 22.5 µM (inactive). The GI50 in the test with IGROV-1 was 14.3 µM (inactive); in the test with RXF 393, 14.7 µM (inactive); with SNB-75, 16.4 µM (inactive); with NCI-H226, 20 µM (inactive); in the test on CAKI-1, 18.2 µM (inactive); in the test with A498 it was 17.6 µM (inactive). The GI50 in the test on NCI-H522 is 15 µM (inactive); in the test with LOX IMVI, 18.2 µM (inactive).
Take `COC(=O)c1sc(=S)sc1SCc1ccccc1CSc1sc(=S)sc1C(=O)OC`: the GI50 is > 100 µM (inactive) in the test with HCT-116; 58.9 µM (inactive) in the test with SF-295; > 100 µM (inactive) in the test on M14; > 100 µM (inactive) with OVCAR-8; > 100 µM (inactive) in the test on ACHN; > 100 µM (inactive) with SK-MEL-5. In addition, the GI50 is > 100 µM (inactive) in the test with SN12C; > 100 µM (inactive) in the test with PC-3; > 100 µM (inactive) with SW-620; > 100 µM (inactive) with SK-MEL-2; > 100 µM (inactive) in the test with Hs-578T; 27.5 µM (inactive) with CCRF-CEM. Also, the GI50 was > 100 µM (inactive) in the test on IGROV-1; 44.3 µM (inactive) in the test with RXF 393; 38.6 µM (inactive) with SNB-75; > 100 µM (inactive) in the test on NCI-H226; > 100 µM (inactive) with CAKI-1; > 100 µM (inactive) in the test with A498. For the same molecule, the GI50 with NCI-H522 and with LOX IMVI was > 100 µM (inactive) throughout.
Regarding `COc1nc2c(c(=O)n1C)NC(C(O)C(O)CO)C=N2` (stereo not given), the GI50 with HCT-116, in the test on SF-295, in the test with M14, in the test on OVCAR-8, with ACHN and with SK-MEL-5 was > 10 µM (inactive) each time. The GI50 in the test on SN12C, in the test with PC-3, in the test with SW-620, in the test on SK-MEL-2, in the test on Hs-578T and with CCRF-CEM was > 10 µM (inactive) throughout. Also, the GI50 with IGROV-1, with RXF 393, in the test with SNB-75, with NCI-H226, in the test with CAKI-1 and in the test on A498 was > 10 µM (inactive) each time. For the same molecule, the GI50 with NCI-H522 and in the test on LOX IMVI was > 10 µM (inactive) throughout.
With `COC(=O)C(/C(=N/N)C(=O)Nc1cc(Cl)c(Cl)cc1Cl)c1nc2ccc(Cl)cc2nc1O` (stereo not given), the GI50 was > 100 µM (inactive) in the test with HCT-116; > 100 µM (inactive) in the test with SF-295; > 100 µM (inactive) with M14; > 100 µM (inactive) in the test with OVCAR-8; 44.8 µM (inactive) with ACHN; > 100 µM (inactive) with SK-MEL-5. Also, the GI50 is > 100 µM (inactive) with SN12C; > 100 µM (inactive) in the test with PC-3; > 100 µM (inactive) in the test with SW-620; > 100 µM (inactive) with SK-MEL-2; > 100 µM (inactive) in the test on Hs-578T; > 10 µM (inactive) in the test with CCRF-CEM. Moreover, the GI50 was 45 µM (inactive) in the test with IGROV-1; > 100 µM (inactive) in the test with RXF 393; > 100 µM (inactive) in the test on SNB-75; > 100 µM (inactive) in the test with NCI-H226; > 100 µM (inactive) in the test on CAKI-1; > 100 µM (inactive) in the test with A498. Besides, the GI50 in the test with NCI-H522 was 38.9 µM (inactive); with LOX IMVI, > 100 µM (inactive).
As to `Cc1ccc(C(=O)Nc2ccc(CP(=O)(O)O)cc2CP(=O)(O)O)cc1NC(=O)c1cccc(N)c1`, the GI50 with HCT-116, in the test on SF-295, in the test on M14, with OVCAR-8, in the test with ACHN and in the test with SK-MEL-5 was > 100 µM (inactive) in each case. Moreover, the GI50 in the test on SN12C, in the test on PC-3, in the test on SW-620, in the test on SK-MEL-2, in the test on Hs-578T and in the test on CCRF-CEM was > 100 µM (inactive) each time. In addition, the GI50 in the test with IGROV-1, in the test with RXF 393, with SNB-75, with NCI-H226, in the test with CAKI-1 and in the test on A498 was > 100 µM (inactive) throughout. Moreover, the GI50 with NCI-H522 and in the test with LOX IMVI was > 100 µM (inactive) in each case.
In the case of `Nc1ncnc2c(C3OC(CO)C(O)C3O)c[nH]c12` (stereo not given), the GI50 is 0.01 µM (active) with HCT-116; 0.01 µM (active) in the test with SF-295; 0.0123 µM (active) in the test with M14; 0.00227 µM (active) in the test on OVCAR-8; 0.00125 µM (active) in the test on ACHN; 0.00564 µM (active) in the test with SK-MEL-5. In addition, the GI50 is 0.00377 µM (active) with SN12C; 0.00515 µM (active) with PC-3; 0.00195 µM (active) in the test on SW-620; 0.01 µM (active) in the test on SK-MEL-2; 0.00129 µM (active) in the test with Hs-578T; 0.00224 µM (active) in the test on CCRF-CEM. For the same molecule, the GI50 in the test on IGROV-1 is 0.00422 µM (active); in the test with RXF 393, 0.00301 µM (active); in the test with SNB-75, 0.00328 µM (active); in the test with NCI-H226 it was < 0.0138 µM (active); in the test on CAKI-1, 0.00306 µM (active); in the test on A498, 0.0213 µM (active). Moreover, the results for the GI50 in the test with NCI-H522 and with LOX IMVI were 0.00614 µM (active) and 0.00282 µM (active), respectively.
In the case of `c1ccc2c(c1)ccc1cc3cc(NCCCCNc4ccc5nc6c(ccc7ccccc76)cc5c4)ccc3nc12`, the GI50 in the test with HCT-116 is 0.176 µM (active); in the test with SF-295 it was 1.38 µM (inactive); with M14, 1.72 µM (inactive); in the test with OVCAR-8, 0.167 µM (active); in the test on ACHN, 1.39 µM (inactive); in the test on SK-MEL-5, 1.32 µM (inactive). For the same molecule, the GI50 with SN12C was 1.41 µM (inactive); in the test on PC-3, 1.31 µM (inactive); with SW-620, 0.195 µM (active); with SK-MEL-2 it was 1.91 µM (inactive); in the test on Hs-578T it was 1.96 µM (inactive); in the test with CCRF-CEM it was 0.427 µM (active). The GI50 is 1.41 µM (inactive) with IGROV-1; 1.58 µM (inactive) in the test on RXF 393; 1.91 µM (inactive) in the test with SNB-75; 1.73 µM (inactive) in the test with NCI-H226; 2.01 µM (inactive) with CAKI-1; 1.17 µM (inactive) with A498. The results for the GI50 in the test with NCI-H522 and with LOX IMVI were 1.91 µM (inactive) and 1.71 µM (inactive), respectively.
Take `CC(NNC(=O)CC(=O)N(C(=O)c1ccccc1)c1ccc(Cl)cc1)c1cc2ccccc2oc1=O` (stereo not given): the GI50 in the test on HCT-116, with SF-295, in the test with M14, with OVCAR-8, in the test with ACHN and in the test on SK-MEL-5 was > 10 µM (inactive) in each case. The GI50 in the test on SN12C, in the test with PC-3, in the test with SW-620, in the test on SK-MEL-2, in the test with Hs-578T and in the test with CCRF-CEM was > 10 µM (inactive) throughout. Besides, the GI50 in the test on IGROV-1, with RXF 393, in the test with SNB-75, in the test on NCI-H226, in the test on CAKI-1 and in the test with A498 was > 10 µM (inactive) in each case. Moreover, the GI50 with NCI-H522 and in the test with LOX IMVI was > 10 µM (inactive) in each case.
Turning to `O=C1CCC2c3ccccc3NCN12` (stereo not given), the GI50 in the test with HCT-116, in the test with SF-295, in the test on M14, with OVCAR-8, with ACHN and in the test on SK-MEL-5 was > 100 µM (inactive) throughout. Besides, the GI50 with SN12C, with PC-3, in the test on SW-620, in the test with SK-MEL-2, with Hs-578T and in the test on CCRF-CEM was > 100 µM (inactive) in each case. Also, the GI50 in the test with IGROV-1, with RXF 393, in the test on SNB-75, in the test on NCI-H226, in the test with CAKI-1 and in the test with A498 was > 100 µM (inactive) each time. Besides, the GI50 in the test with NCI-H522 and in the test on LOX IMVI was > 100 µM (inactive) each time.
Regarding `O=C1OCC(c2ccc(Cl)cc2)=C1Cl`, the GI50 is 13.9 µM (inactive) in the test with HCT-116; 39.9 µM (inactive) in the test on SF-295; 18.8 µM (inactive) with M14; 25.5 µM (inactive) in the test with OVCAR-8; 42.1 µM (inactive) in the test with ACHN; 17.1 µM (inactive) in the test on SK-MEL-5. Moreover, the GI50 in the test on SN12C was 26.7 µM (inactive); in the test on PC-3, 22.1 µM (inactive); in the test with SW-620, 25.4 µM (inactive); with SK-MEL-2 it was 22.9 µM (inactive); with Hs-578T, 45.8 µM (inactive); in the test with CCRF-CEM, 29.2 µM (inactive). Besides, the GI50 is < 0.01 µM (active) in the test with IGROV-1; 25.1 µM (inactive) with RXF 393; > 100 µM (inactive) in the test on SNB-75; 55.8 µM (inactive) in the test with NCI-H226; 30.5 µM (inactive) in the test with CAKI-1; 82 µM (inactive) with A498. The GI50 was 18.5 µM (inactive) in the test with NCI-H522 and 23.2 µM (inactive) in the test on LOX IMVI.
